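Interpolation was linear, between the two tested concentrations surrounding the appropriate level; five concentrations were tested over 48 hours in 96-well plates. GI50 = concentration required for 50% inhibition of growth. At the TGI there is no net growth.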
Key:
Test in all cases: inhibition of tumour cell growth, NCI panel, 48 h
ACHN renal = tested on: ACHN renal
TK-10 renal = tested on: TK-10 renal
OVCAR-8 ovarian = tested on: OVCAR-8 ovarian
SK-MEL-28 melanoma = tested on: SK-MEL-28 melanoma
DU-145 prostate = tested on: DU-145 prostate
SF-539 CNS = tested on: SF-539 CNS
UACC-62 melanoma = tested on: UACC-62 melanoma
MDA-MB-231 breast = tested on: MDA-MB-231 breast
OVCAR-5 ovarian = tested on: OVCAR-5 ovarian
HOP-92 NSCLC = tested on: HOP-92 NSCLC
OVCAR-4 ovarian = tested on: OVCAR-4 ovarian
RXF 393 renal = tested on: RXF 393 renal
SNB-75 CNS = tested on: SNB-75 CNS
LOX IMVI melanoma = tested on: LOX IMVI melanoma
UO-31 renal = tested on: UO-31 renal
A498 renal = tested on: A498 renal

**Q.** With C=C(C)[C@@H]1CC[C@]2(COCCCNCCCN)CC[C@]3(C)[C@H](CC[C@@H]4[C@@]5(C)CC[C@H](O)C(C)(C)[C@@H]5CC[C@]43C)[C@@H]12 as the molecule, how does the GI50 (ACHN renal) read?
**A.** 1780 nM

**Q.** And the TGI (ACHN renal)?
**A.** 3240 nM

**Q.** And the GI50 (TK-10 renal)?
**A.** 1840 nM

**Q.** And the TGI (TK-10 renal)?
**A.** 3560 nM

**Q.** What about the GI50 (OVCAR-8 ovarian) of the same molecule?
**A.** 2140 nM

**Q.** What about the TGI (OVCAR-8 ovarian) of the same molecule?
**A.** 4880 nM

**Q.** What about the GI50 (SK-MEL-28 melanoma) of the same molecule?
**A.** 1750 nM

**Q.** What about the TGI (SK-MEL-28 melanoma) of the same molecule?
**A.** 3370 nM

**Q.** What about the GI50 (DU-145 prostate) of the same molecule?
**A.** 1940 nM

**Q.** And the TGI (DU-145 prostate)?
**A.** 3490 nM

**Q.** What about the GI50 (SF-539 CNS) of the same molecule?
**A.** 1770 nM

**Q.** And the TGI (SF-539 CNS)?
**A.** 3390 nM

**Q.** What about the GI50 (UACC-62 melanoma) of the same molecule?
**A.** 1770 nM

**Q.** And the TGI (UACC-62 melanoma)?
**A.** 3390 nM

**Q.** What about the GI50 (MDA-MB-231 breast) of the same molecule?
**A.** 1850 nM

**Q.** And the TGI (MDA-MB-231 breast)?
**A.** 3490 nM

**Q.** And the GI50 (OVCAR-5 ovarian)?
**A.** 1750 nM

**Q.** What about the TGI (OVCAR-5 ovarian) of the same molecule?
**A.** 3230 nM

**Q.** What about the GI50 (HOP-92 NSCLC) of the same molecule?
**A.** 1520 nM

**Q.** And the TGI (HOP-92 NSCLC)?
**A.** 3140 nM

**Q.** And the GI50 (OVCAR-4 ovarian)?
**A.** 1960 nM

**Q.** And the TGI (OVCAR-4 ovarian)?
**A.** 3730 nM

**Q.** What about the GI50 (RXF 393 renal) of the same molecule?
**A.** 1570 nM

**Q.** What about the TGI (RXF 393 renal) of the same molecule?
**A.** 2960 nM

**Q.** And the GI50 (SNB-75 CNS)?
**A.** 1730 nM

**Q.** And the TGI (SNB-75 CNS)?
**A.** 3370 nM

**Q.** What about the GI50 (LOX IMVI melanoma) of the same molecule?
**A.** 234 nM

**Q.** What about the TGI (LOX IMVI melanoma) of the same molecule?
**A.** 2280 nM

**Q.** What about the GI50 (UO-31 renal) of the same molecule?
**A.** 1600 nM

**Q.** What about the TGI (UO-31 renal) of the same molecule?
**A.** 3030 nM

**Q.** And the GI50 (A498 renal)?
**A.** 1850 nM

**Q.** And the TGI (A498 renal)?
**A.** 4210 nM
